From patent publication US9783853B2, “Recurrent gene fusions in cancer” (THE REGENTS OF THE UNIVERSITY OF MICHIGAN, priority 2013, dated 2017)

Tests used:
[1] = system: SW780 cells (FGFR3-BAIAP2L1 fusion); assay: Cell proliferation assay (WST-1), FGFR inhibition; assay type: cell-based; details: 0, 5, 25, 100 nM
Protocol: For validation of fusion transcripts, quantitative RT-PCR assays were performed. Total cDNAs of index cases and negative control samples were synthesized using SuperScript III System according to the manufacturer's instructions (Invitrogen). Quantitative RT-PCR was performed using fusion-specific primers (Table 15) with SYBR Green Master Mix (Applied Biosystems) on the StepOne Real-Time PCR System (Applied Biosystems). The PCR products were further analyzed by agarose gel electrophoresis. Relative mRNA levels of the fusion transcripts were normalized to the expression of the housekeeping gene GAPDH. Inhibition of FGFR receptors and cell proliferation assay Bladder cancer cells SW780, J82, and HT1197 were seeded into 96-well plates in triplicate and allowed to attach before drug treatment. The FGFR inhibitor PD173074 (Selleck Chemicals) was added to the cultures at concentrations of 0, 5, 25, and 100 nM. Relative cell numbers were measured by WST-1 assays at indicated time points following the manufacturer's instructions (Roche).

SW780 xenografts = assay: Mouse xenograft model, tumor growth; assay type: in vivo, C.B17/SCID mice; details: increasing doses, intraperitoneal
Protocol: (§1) Five week-old male C.B17/SCID mice were procured from a breeding colony at University of Michigan, maintained by Dr. Kenneth Pienta. Mice were anesthetized using a cocktail of xylazine ([…], intraperitoneal) and ketamine (10 mg/kg, intraperitoneal) for chemical restraint. Bladder cancer cells SW780 (2 million cells for each implantation site) or J82 (5 million cells for each implantation site) were resuspended in 100 μl of 1×PBS with 20% Matrigel (BD Biosciences) and were implanted subcutaneously into flank region on both sides. Eight mice were included in each experimental group. All tumors were staged for two weeks (SW780 cells) and three weeks (J82 cells) before starting the drug treatment. Xenografted mice with palpable tumors were treated with a FGFR inhibitor PD173074 (Selleck Chemicals) dissolved in 5% ethanol in corn oil (intraperitoneal). Mice in control group received 5% ethanol in corn oil as vehicle control. Tumor growth was recorded weekly by using digital calipers and tumor volumes were calculated using the formula (π/6) (L×W2), where L=length of tumor and W=width. Any decrease in the body weight of mice was monitored bi-weekly during the course of the study. All experimental procedures involving mice were approved by the University Committee on Use and Care of Animals (UCUCA) at the University of Michigan and conform to their relevant regulatory standards.

J82 xenografts = assay: Mouse xenograft model, tumor growth; assay type: in vivo, C.B17/SCID mice; details: increasing doses, intraperitoneal
Protocol: as §1

## CCN(CC)CCCCNc1ncc2cc(-c3cc(OC)cc(OC)c3)c(NC(=O)NC(C)(C)C)nc2n1 [PD173074]
[1]
  sensitivity of cell line to FGFR inhibitor (cell proliferation): sensitive to nanomolar concentrations
[1]; listed as PD 173074
  sensitivity of cell line to FGFR inhibitor (cell proliferation): enhanced sensitivity
SW780 xenografts
  xenograft tumor growth: decreased tumor growth
J82 xenografts
  xenograft tumor growth: did not
